# Assay results from US6638973B2, “Taxane formulations” (FSU Research Foundation, Inc., priority 2000, dated 2003).
# Legend:
# [1] = intravenous, concentrations required to deliver therapeutic doses of paclitaxel; cited from earlier work
# HCT116 cells = assay: In vitro cytotoxicity measured by the cell colony formation assay; format: cell-based; conditions: HCT116 colony formation; 72 h drug incubation, colonies counted after 7 days; Example 10, C-10 ester/C-7 hydroxy taxanes; read-out: IN VITRO ID 50 (nm) HCT116
# Summary of the method: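 Colony-forming survival was scored 7 days after a 72 h, 37 °C compound exposure followed by washout into fresh medium.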
Compound,toxicity to mice [1],IC50 (HCT116 cells) [nM]
"CC(=O)OCC(COC(C)=O)OC(C)=O [triacetin, glyceryl triacetate]",toxic,
CC(=O)OC12COC1CC(O)C1(C)C(=O)C(OC(=O)c3ccco3)C3=C(C)C(OC(=O)C(O)C(NC(=O)OC(C)(C)C)c4ccncc4)CC(O)(C(OC(=O)c4ccccc4)C21)C3(C)C (centres unmarked) [Compound 2132],,< 1
